Results taken from the NIST ThermoML archive (doi:10.1021/je200093f).
Values joined by “and” are separate entries in the source; they are usually repeats but may differ in a detail not shown here. Identical values can stand only once.

Tests used:
[1] = xn = mol fraction of the nth substance listed; details: 298.15 K, 101 kPa, Liquid, Vibrating tube method
[2] = excess molar enthalpy (molar enthalpy of mixing); xn = mol fraction of the nth substance listed; details: 298.15 K, 101 kPa, Liquid, Calvet calorimetry
[3] = 101.33 kPa, Liquid, Vibrating tube method

Cc1ccncc1 [4-methylpyridine] + O
Details | excess molar enthalpy, [2] | mass density, [1]
x1 = 0.000919 | -0.00217 kcal/mol and -0.00216 kcal/mol | 997.023 kg/m3 and 997.024 kg/m3
x1 = 0.001837 | -0.00432 kcal/mol and -0.00429 kcal/mol | 997.005 kg/m3
x1 = 0.002753 | -0.0064 kcal/mol | 996.988 kg/m3
x1 = 0.002754 | -0.0064 kcal/mol | 996.988 kg/m3
x1 = 0.003667 | -0.00843 kcal/mol | 996.972 kg/m3
x1 = 0.003668 | -0.00844 kcal/mol | 996.971 kg/m3
x1 = 0.00458 | -0.0105 kcal/mol | 996.955 kg/m3 and 996.956 kg/m3
x1 = 0.005492 | -0.0124 kcal/mol | 996.939 kg/m3

CN1CCOCC1 [N-methylmorpholine]
Details | mass density [kg/m3]
[3], 298.15 K | 914.15

CN1CCOCC1 [N-methylmorpholine] + CO
Details | excess molar enthalpy, [2] | mass density, [1]
x1 = 0.001834 | – | 787.377 kg/m3 and 787.359 kg/m3
x1 = 0.003662 | -0.00519 kcal/mol | 788.239 kg/m3
x1 = 0.003663 | -0.0052 kcal/mol | 788.267 kg/m3
x1 = 0.005484 | -0.00777 kcal/mol and -0.00772 kcal/mol | 789.159 kg/m3 and 789.119 kg/m3
x1 = 0.007298 | -0.0103 kcal/mol | 790.004 kg/m3
x1 = 0.007299 | -0.0103 kcal/mol | 790.044 kg/m3
x1 = 0.009104 | -0.0128 kcal/mol | 790.862 kg/m3
x1 = 0.009108 | -0.0128 kcal/mol | 790.908 kg/m3
x1 = 0.0109 | -0.0152 kcal/mol | 791.711 kg/m3
x1 = 0.01091 | -0.0152 kcal/mol | 791.753 kg/m3

CN1CCOCC1 [N-methylmorpholine] + O
Details | excess molar enthalpy, [2] [kcal/mol] | mass density, [1] [kg/m3]
x1 = 0.000812 | -0.00565 | 997.058
x1 = 0.000813 | -0.00565 | 997.058
x1 = 0.001623 | -0.0113 | 997.074
x1 = 0.001624 | -0.0113 | 997.074
x1 = 0.002433 | -0.0169 | 997.095
x1 = 0.002434 | -0.0168 | 997.094
x1 = 0.003242 | -0.0224 | 997.121
x1 = 0.004048 | -0.0279 | 997.151
x1 = 0.00405 | -0.0279 | 997.153
x1 = 0.004854 | -0.0335 | 997.187
x1 = 0.004858 | -0.0334 | 997.188

CN1CCCCC1 [N-methylpiperidine]
[3]
Details | mass density [kg/m3]
288.15 K | 821.53
293.15 K | 817.22
298.15 K | 812.62
303.15 K | 808.16
308.15 K | 803.61

CN1CCCCC1 [N-methylpiperidine] + CO
Details | excess molar enthalpy, [2] | mass density, [1] [kg/m3]
x1 = 0.001664 | -0.00412 kcal/mol and -0.00411 kcal/mol | 786.815
x1 = 0.003322 | -0.00819 kcal/mol | 787.153
x1 = 0.003323 | -0.00814 kcal/mol | 787.15
x1 = 0.004975 | -0.0122 kcal/mol | 787.488
x1 = 0.004976 | -0.0122 kcal/mol | 787.486
x1 = 0.006622 | -0.0162 kcal/mol | 787.816
x1 = 0.006624 | -0.0161 kcal/mol | 787.816
x1 = 0.008264 | -0.0201 kcal/mol | 788.141
x1 = 0.008266 | -0.0201 kcal/mol | 788.139
x1 = 0.0099 | -0.024 kcal/mol | 788.458
x1 = 0.009904 | -0.0239 kcal/mol | 788.454

CN1CCCCC1 [N-methylpiperidine] + O
Details | excess molar enthalpy, [2] [kcal/mol] | mass density, [1] [kg/m3]
x1 = 0.000735 | -0.00509 | 996.66
x1 = 0.000736 | -0.00513 | 996.651
x1 = 0.000737 | -0.00512 | 996.658
x1 = 0.00147 | -0.0102 | 996.261
x1 = 0.001471 | -0.0103 | 996.253
x1 = 0.001473 | -0.0102 | 996.26
x1 = 0.002202 | -0.0154 | 995.866
x1 = 0.002206 | -0.0155 | 995.858
x1 = 0.002208 | -0.0154 | 995.862
x1 = 0.002934 | -0.0206 | 995.483
x1 = 0.002939 | -0.0206 | 995.482
x1 = 0.002942 | -0.0206 | 995.47
x1 = 0.003666 | -0.0258 | 995.109
x1 = 0.003671 | -0.0258 | 995.097
x1 = 0.003675 | -0.0259 | 995.081
x1 = 0.004398 | -0.0308 | 994.752
x1 = 0.004404 | -0.0309 | 994.733
x1 = 0.004409 | -0.031 | 994.716
